ChEMBL document CHEMBL4373683, “Dual-target inhibitors of mycobacterial aminoacyl-tRNA synthetases among N-benzylidene-N'-thiazol-2-yl-hydrazines” (Medchemcomm, 2019)
In brackets after ≈: the same amount, converted by molar mass.

Key:
[1] = biological target: T1, Leucine--tRNA ligase (Mycobacterium tuberculosis (strain ATCC 25618 / H37Rv)) (UniProt P9WFV1); assay: (§1) Inhibition of Mycobacterium tuberculosis LeuRS expressed in Escherichia coli Rosetta (DE3) cells at 100 uM incubated for 30 mins followed by incubation with ATP, leucine, tRNA, iPPase for 10 mins and measured after 30 mins by BIOMOL Green reagent based plate reader analysis relative to control
T1 sequence (whole entry): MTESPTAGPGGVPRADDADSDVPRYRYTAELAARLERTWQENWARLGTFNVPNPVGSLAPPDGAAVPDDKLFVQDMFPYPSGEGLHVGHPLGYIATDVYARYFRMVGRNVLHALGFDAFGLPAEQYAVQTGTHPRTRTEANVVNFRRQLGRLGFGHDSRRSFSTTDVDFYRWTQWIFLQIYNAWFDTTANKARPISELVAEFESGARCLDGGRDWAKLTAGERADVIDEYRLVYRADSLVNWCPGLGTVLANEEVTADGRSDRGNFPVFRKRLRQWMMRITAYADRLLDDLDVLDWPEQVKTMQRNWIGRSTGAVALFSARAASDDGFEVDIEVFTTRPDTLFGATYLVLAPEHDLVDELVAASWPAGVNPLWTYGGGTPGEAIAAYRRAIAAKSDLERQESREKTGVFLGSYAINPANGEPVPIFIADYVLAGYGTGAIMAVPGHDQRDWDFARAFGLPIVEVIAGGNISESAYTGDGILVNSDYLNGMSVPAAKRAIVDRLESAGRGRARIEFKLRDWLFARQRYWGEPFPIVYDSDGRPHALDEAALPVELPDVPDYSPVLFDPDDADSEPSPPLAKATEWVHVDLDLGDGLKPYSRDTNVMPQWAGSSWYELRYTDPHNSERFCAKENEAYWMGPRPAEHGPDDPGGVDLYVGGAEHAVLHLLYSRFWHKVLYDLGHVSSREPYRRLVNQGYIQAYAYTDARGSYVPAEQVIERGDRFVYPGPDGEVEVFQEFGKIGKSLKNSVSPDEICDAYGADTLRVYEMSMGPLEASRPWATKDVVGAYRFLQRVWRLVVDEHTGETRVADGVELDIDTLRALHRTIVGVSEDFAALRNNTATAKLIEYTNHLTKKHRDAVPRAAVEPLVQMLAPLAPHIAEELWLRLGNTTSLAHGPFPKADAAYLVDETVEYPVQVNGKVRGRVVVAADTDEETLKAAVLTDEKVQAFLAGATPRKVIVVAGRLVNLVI

[2] = tested on: Mycobacterium tuberculosis H37Rv; assay: as §1, with “of recombinant” for “of”, “H37Rv C-terminal His6-tagged MetRS” for “LeuRS”, “BL21” for “Rosetta”, “(DE3) Star” for “(DE3)”, “methionine,” for “leucine,”
[3] = tested on: Mycobacterium tuberculosis; format: functional; conditions: H37Rv ATCC 27294, 336 h
[4] = tested on: Mycobacterium tuberculosis; format: functional; conditions: H37Rv ATCC 27294, 336 h; remark: listed apart in the source
[5] = Cytotoxicity against human HEK293 cells assessed as reduction in cell viability incubated for 72 hrs by MTT assay; format: cell-based
[6] = tested on: Mycobacterium tuberculosis; format: functional; conditions: H37Rv ATCC 27294, 336 h; remark: listed apart in the source
[7] = tested on: Mycobacterium tuberculosis; format: functional; conditions: H37Rv ATCC 27294, 168 h
[8] = tested on: Mycobacterium tuberculosis; format: functional; conditions: H37Rv ATCC 27294, 336 h; remark: listed apart in the source
[9] = tested on: Mycobacterium tuberculosis; format: functional; conditions: H37Rv ATCC 27294, 168 h; remark: listed apart in the source
[10] = tested on: Mycobacterium tuberculosis; format: functional; conditions: H37Rv ATCC 27294, 168 h; remark: listed apart in the source
Leucine--tRNA ligase = biological target: T2, Leucine--tRNA ligase (Mycobacterium tuberculosis (strain ATCC 25618 / H37Rv), UniProt P9WFV1); assay: (§2) Inhibition of Mycobacterium tuberculosis LeuRS expressed in Escherichia coli Rosetta (DE3) cells incubated for 30 mins followed by incubation with ATP, leucine, tRNA, iPPase for 10 mins and measured after 30 mins by BIOMOL Green reagent based plate reader analysis
T2 sequence (P9WFV1 whole entry): T1 sequence (whole entry)

[11] = Cytotoxicity against human HepG2 cells assessed as reduction in cell viability incubated for 72 hrs by MTT assay; format: cell-based
[12] = tested on: Mycobacterium tuberculosis; format: functional; conditions: H37Rv ATCC 27294, 168 h; remark: listed apart in the source
[13] = as §2, with “of recombinant” for “of”, “H37Rv C-terminal His6-tagged MetRS” for “LeuRS”, “BL21” for “Rosetta”, “(DE3) Star” for “(DE3)”, “methionine,” for “leucine,”; conditions: read-out: IC50
Saccharomyces cerevisiae = assay: Inhibition of yeast inorganic pyrophosphatase assessed as inhibition of BIOMOL-Green signal using inorganic pyrophosphate as substrate at 50 uM incubated for 10 mins in MtbMetRS reaction buffer and measured after 30 mins by BIOMOL-Green reagent based plate reader analysis
[14] = Inhibition of BIOMOL-Green signal at 50 uM in MtbMetRS reaction buffer in presence of 10 uM phosphate standard measured after 30 mins by plate reader analysis

Compound | inhibition [1] | inhibition [2] | inhibition (Saccharomyces cerevisiae) | inhibition [14] | also measured
O=[N+]([O-])c1ccccc1/C=N/Nc1nccs1 | 45% | 51% | – | – | –
COc1ccc(/C=N/Nc2nc(-c3ccc(F)cc3)cs2)cc1Br | 109% | 121% | – | – | MIC [3]: 37 µM (≈ 15 µg/mL); MIC [4]: 2.3 µM (≈ 0.934 µg/mL); CC50 at 72 h [5]: > 100 µM; MIC [6]: 2.3 µM (≈ 0.934 µg/mL); MIC [7]: 19 µM (≈ 7.72 µg/mL); MIC [8]: 25 µM (≈ 10.2 µg/mL); MIC [9]: 0.78 µM (≈ 0.317 µg/mL); MIC [10]: 1.56 µM (≈ 0.634 µg/mL); IC50 (Leucine--tRNA ligase): 12.5 µM; CC50 at 72 h [11]: > 100 µM; MIC [12]: 9.4 µM (≈ 3.82 µg/mL); IC50 [13]: 10.7 µM
Cc1sc(N/N=C/c2cccc(O)c2)nc1-c1ccccc1 | 65% | 112% | < 35% | < 35% | –
CCOC(=O)c1sc(N/N=C/c2ccc(C(=O)O)cc2)nc1C | -7% | 6% | – | – | –
COC(=O)c1sc(N/N=C/c2ccc(Br)cc2)nc1C | 46% | 88% | < 35% | < 35% | –
CCOC(=O)c1sc(N/N=C/c2cc(Br)c(O)c(OC)c2)nc1C | 54% | 94% | – | – | –
CN(C)c1ccc(/C=N/Nc2nc(-c3ccccc3)cs2)cc1 | 65% | 123% | < 35% | < 35% | –
COc1cccc(/C=N/Nc2nc(C)cs2)c1OC | 17% | 25% | – | – | –
COc1ccc(OC)c(/C=N/Nc2nc(-c3cccnc3)cs2)c1 | 74% | 115% | – | – | –
Oc1ccccc1/C=N/Nc1nc(-c2ccccc2)cs1 | 7% | 51% | – | – | –
COc1cc(/C=N/Nc2nc(C)c(C(C)=O)s2)ccc1OCc1ccccc1Cl | 87% | 113% | < 35% | < 35% | –
CCOC(=O)c1sc(N/N=C/c2ccccc2Br)nc1C | 67% | 99% | – | – | –
COC(=O)c1sc(N/N=C/c2ccc([N+](=O)[O-])cc2)nc1C | 88% | 75% | – | – | –
Cc1csc(N/N=C/c2ccc([N+](=O)[O-])cc2)n1 | 20% | 92% | – | – | –
COc1cc(/C=N/Nc2nc(-c3ccc(Br)cc3)cs2)cc([N+](=O)[O-])c1O | 113% | 110% | < 35% | < 35% | –
O=C(O)c1ccc(/C=N/Nc2nc(-c3ccc(Cl)cc3Cl)cs2)cc1 | 101% | 92% | – | – | MIC [3]: > 50 µM; MIC [4]: > 50 µM; MIC [6]: > 50 µM; MIC [7]: > 50 µM; MIC [8]: > 50 µM; MIC [9]: > 50 µM; MIC [10]: > 50 µM; IC50 (Leucine--tRNA ligase): 27.3 µM; MIC [12]: > 50 µM; IC50 [13]: 22.7 µM
COc1ccc(/C=N/Nc2nccs2)cc1Br | 29% | 90% | – | – | –
Cc1csc(N/N=C/c2cc(Br)ccc2O)n1 | 39% | 113% | – | – | –
CCOC(=O)c1sc(N/N=C/c2ccccc2)nc1C | 19% | 73% | – | – | –
COc1cc(/C=N/Nc2nccs2)ccc1OCc1ccccc1Cl | 64% | 102% | < 35% | < 35% | –
